# US20230210819A1, “USE OF BENZISOSELAZOLE DERIVATIVE FOR ANTI-CORONAVIRUS AND CONTROL OF INTERSTITIAL LUNG DISEASE (ILD) RELATED TO CORONAVIRUS” (SHANGHAI YUANXI MEDICINE CORP., priority 2020, published 2023)
# “Also recorded” adds a separate entry of the source.
# Tests used:
# [1] = tested on: cytokines in bronchoalveolar lavage fluid; experiment: Inflammatory factor assay of bronchoalveolar lavage fluid by ELISA; assay type: in vivo, C57 mice; conditions: for Percent reduction in IFN-γ in bronchoalveolar lavage fluid with respect to the Model group / Percent reduction in PPAR-y in bronchoalveolar lavage fluid with respect to the Model group: negative = increase; for IL-1β in bronchoalveolar lavage fluid / IL-2 in bronchoalveolar lavage fluid / IL-6 in bronchoalveolar lavage fluid / TNF-α in bronchoalveolar lavage fluid: second half of table, head taken from the 24th table
# Experimental: (§1) Animals of 7-d modeling were randomly divided into 7 groups according to the table below, 6 animals per control group and 12 animals per test group.
# (§2) Drug administration began 24 h or 7 d after modeling. […] The day of the first administration was counted as D1, the next day as D2, and so forth. The normal groups and Model groups were given 200 µL of normal saline daily by gavage administration.
# After the mouse was fixed, its trachea and chest cavity were exposed, and the trachea and the esophagus were bluntly separated with an ophthalmic curved forceps. Two sutures were made between the trachea and the esophagus. An intravenous trocar was inserted into the trachea and ligated at the site where it entered the trachea and at its distal end. A 1 mL syringe was connected to draw in 1 mL of pre-cooled PBS and infuse it into the lung tissue. Significant filling in the lung could be seen with the naked eye. The infusion was stopped for 10 s and withdrawal was performed. The infusion/withdrawal cycle was repeated 3 times. The withdrawn BALF was transferred to a clean EP tube and centrifuged at 4° C., and the supernatant was collected and preserved at -80° C. The bronchoalveolar lavage fluid was assayed for inflammatory factors by ELISA.
# [2] = Toxic or side effects on mice on gavage administration; assay type: in vivo; conditions: BS 36, 90 and 180 mg/kg
# Experimental: Accordingly, the above dosages were selected as the dosages for administration in this experiment,
# All the animals were observed once daily during the experiment for death or dying, feces, ingestion, mental state and behavior and activity. Abnormalities were recorded in time. All the animals were weighed once before grouping and once before each dose.
# [3] = tested on: bleomycin-induced mouse lung disease model; experiment: Blood gas analysis, 24-h modeling; assay type: in vivo, C57 mice; conditions: for BEect / HCO3^- / PCO2: arterial blood after administration ended
# Experimental: Animals of 24-h modeling were randomly divided into 5 groups according to the table below, 3 animals per control group and 5 animals per test group.
# as §2
# 1. After being anaesthetized, a mouse was fixed to a board in a supine position.
# 2. After the skin was disinfected with alcohol, a midline cut of about 1.5 cm was made downward in the skin of the neck. The connective tissue between the sternohyoid muscle and the stemothyroid muscle was separated along the anterior border of the sternomastoid muscle with a tissue forceps. The pulsating common carotid artery could be seen on the deep right side of the trachea. A common carotid artery of about 1.5 cm in length was separated. The distal end was ligated with silk thread, and the proximal end was clipped with an artery clip and threaded with a silk thread for later use. The mouse board was placed under a dissecting microscope, and a V-shaped centripetal incision was gently made in a site near the distal end of the artery with a microscopy scissor. A PE microcatheter was inserted into the artery and fixed by making a knot with silk thread. The artery clip was removed, and 0.1-0.2 mL of blood was collected with a 1 mL syringe. The proximal end was clipped with an artery clip, and the syringe was removed. The blood was immediately analyzed on an AbboTTi-STAT blood gas microanalyzer.
# In a blood gas analysis, the H^+ concentration in the blood and gases (mainly CO2 and O2) dissolved in the blood can be determined to directly reflect the function of pulmonary ventilation and the acid-base balance state. They are used to determine in the organism whether the acid-base balance is upset, whether anoxia occurred, the level of anoxia, and so forth.
# [4] = tested on: bleomycin-induced mouse lung disease model; experiment: Lung and spleen coefficients, 7-d modeling; assay type: in vivo, C57 mice
# Experimental: as §1, §2
# Method: after being euthanized, the animals were dissected, and the heart, liver, spleen, lung and kidney were weighed.
# In this experiment, 105 C57 mice were randomly selected and subjected to organ drip administration of a single dose of bleomycin at 2.5 mg/kg for 24 h or 7 d for induction. After 7 days of induction, 3 model mice were randomly selected and dissected to determine whether the modeling was successful. After modeling, the survival of the mice was recorded. The living states of the mice were observed and their body weight was measured at a fixed time.
# A normal control group comprised 6 mice.
# [5] = Dex 1-1.5 mg/kg i.p. every two days
structure (smiles),measurement,setting,value
"O=c1c2ccccc2[se]n1CCCCn1[se]c2ccccc2c1=O [BS, 1,4-[bis(1,2-benzisoselenazol-3(2H)-one)]butane]",IFN-γ in bronchoalveolar lavage fluid,[1]; BSH: BS 180 mg/kg gavage daily,55.70 ± 4.27 pg/mL
same,NF-κB in bronchoalveolar lavage fluid,[1]; BSH: BS 180 mg/kg gavage daily,759.34 ± 104.53 pg/mL
same,PPAR-γ in bronchoalveolar lavage fluid,[1]; BSH: BS 180 mg/kg gavage daily,237.75 ± 24.92 pg/mL
same,Percent reduction in IL-1β in bronchoalveolar lavage fluid with respect to the Model group,[1]; BSH: BS 180 mg/kg gavage daily,61.70%
same,Percent reduction in IL-2 in bronchoalveolar lavage fluid with respect to the Model group,[1]; BSH: BS 180 mg/kg gavage daily,10.87%
same,Percent reduction in IL-6 in bronchoalveolar lavage fluid with respect to the Model group,[1]; BSH: BS 180 mg/kg gavage daily,67.10%
same,Percent reduction in NF-κB in bronchoalveolar lavage fluid with respect to the Model group,[1]; BSH: BS 180 mg/kg gavage daily,17.22%
same,Percent reduction in TGF-β in bronchoalveolar lavage fluid with respect to the Model group,[1]; BSH: BS 180 mg/kg gavage daily,14.53%
same,Percent reduction in TNF-α in bronchoalveolar lavage fluid with respect to the Model group,[1]; BSH: BS 180 mg/kg gavage daily,22.95%
same,TGF-β in bronchoalveolar lavage fluid,[1]; BSH: BS 180 mg/kg gavage daily,161.82 ± 20.96 pg/mL
same,Percent reduction in IFN-γ in bronchoalveolar lavage fluid with respect to the Model group,[1]; BSH: BS 180 mg/kg gavage daily,-67.81%
same,Percent reduction in PPAR-y in bronchoalveolar lavage fluid with respect to the Model group,[1]; BSH: BS 180 mg/kg gavage daily,-9.52%
same,IL-1β in bronchoalveolar lavage fluid,[1]; BSH: BS 180 mg/kg gavage daily,4.78 ± 0.69 pg/mL
same,IL-2 in bronchoalveolar lavage fluid,[1]; BSH: BS 180 mg/kg gavage daily,40.37 ± 5.25 pg/mL
same,IL-6 in bronchoalveolar lavage fluid,[1]; BSH: BS 180 mg/kg gavage daily,9.47 ± 1.96 pg/mL
same,TNF-α in bronchoalveolar lavage fluid,[1]; BSH: BS 180 mg/kg gavage daily,43.24 ± 7.14 pg/mL
same,"Inhibitory effect on inflammatory cells and proinflammatory factors (NF-κB, TNF-α, IL-1β, IL-2, IL-6) compared to Dex, in words","[1]; BSH: BS 180 mg/kg, used alone",greater inhibitory effect
same,IFN-γ in bronchoalveolar lavage fluid,[1]; BSL: BS 36 mg/kg gavage daily,38.74 ± 4.74 pg/mL
same,NF-κB in bronchoalveolar lavage fluid,[1]; BSL: BS 36 mg/kg gavage daily,867.20 ± 174.12 pg/mL
same,PPAR-γ in bronchoalveolar lavage fluid,[1]; BSL: BS 36 mg/kg gavage daily,38.74 ± 4.74 pg/mL
same,Percent reduction in IL-1β in bronchoalveolar lavage fluid with respect to the Model group,[1]; BSL: BS 36 mg/kg gavage daily,17.88%
same,Percent reduction in IL-2 in bronchoalveolar lavage fluid with respect to the Model group,[1]; BSL: BS 36 mg/kg gavage daily,4.03%
same,Percent reduction in IL-6 in bronchoalveolar lavage fluid with respect to the Model group,[1]; BSL: BS 36 mg/kg gavage daily,49.92%
same,Percent reduction in NF-κB in bronchoalveolar lavage fluid with respect to the Model group,[1]; BSL: BS 36 mg/kg gavage daily,5.46%
same,Percent reduction in TGF-β in bronchoalveolar lavage fluid with respect to the Model group,[1]; BSL: BS 36 mg/kg gavage daily,0.42%
same,Percent reduction in TNF-α in bronchoalveolar lavage fluid with respect to the Model group,[1]; BSL: BS 36 mg/kg gavage daily,7.38%
same,TGF-β in bronchoalveolar lavage fluid,[1]; BSL: BS 36 mg/kg gavage daily,188.54 ± 24.55 pg/mL
same,Percent reduction in IFN-γ in bronchoalveolar lavage fluid with respect to the Model group,[1]; BSL: BS 36 mg/kg gavage daily,-16.73%
same,Percent reduction in PPAR-y in bronchoalveolar lavage fluid with respect to the Model group,[1]; BSL: BS 36 mg/kg gavage daily,-5.79%
same,IL-1β in bronchoalveolar lavage fluid,[1]; BSL: BS 36 mg/kg gavage daily,10.26 ± 1.29 pg/mL
same,IL-2 in bronchoalveolar lavage fluid,[1]; BSL: BS 36 mg/kg gavage daily,43.46 ± 7.51 pg/mL
same,IL-6 in bronchoalveolar lavage fluid,[1]; BSL: BS 36 mg/kg gavage daily,14.41 ± 1.33 pg/mL
same,TNF-α in bronchoalveolar lavage fluid,[1]; BSL: BS 36 mg/kg gavage daily,51.98 ± 4.37 pg/mL
same,IFN-γ in bronchoalveolar lavage fluid,[1]; BSM: BS 90 mg/kg gavage daily,53.31 ± 5.29 pg/mL
same,NF-κB in bronchoalveolar lavage fluid,[1]; BSM: BS 90 mg/kg gavage daily,824.16 ± 155.14 pg/mL
same,Percent reduction in IL-1β in bronchoalveolar lavage fluid with respect to the Model group,[1]; BSM: BS 90 mg/kg gavage daily,47.93%
same,Percent reduction in IL-2 in bronchoalveolar lavage fluid with respect to the Model group,[1]; BSM: BS 90 mg/kg gavage daily,9.81%
same,Percent reduction in IL-6 in bronchoalveolar lavage fluid with respect to the Model group,[1]; BSM: BS 90 mg/kg gavage daily,54.37%
same,Percent reduction in NF-κB in bronchoalveolar lavage fluid with respect to the Model group,[1]; BSM: BS 90 mg/kg gavage daily,10.15%
same,Percent reduction in TGF-β in bronchoalveolar lavage fluid with respect to the Model group,[1]; BSM: BS 90 mg/kg gavage daily,2.87%
same,Percent reduction in TNF-α in bronchoalveolar lavage fluid with respect to the Model group,[1]; BSM: BS 90 mg/kg gavage daily,11.68%
same,TGF-β in bronchoalveolar lavage fluid,[1]; BSM: BS 90 mg/kg gavage daily,178.54 ± 14.64 pg/mL
same,Percent reduction in IFN-γ in bronchoalveolar lavage fluid with respect to the Model group,[1]; BSM: BS 90 mg/kg gavage daily,-60.63%
same,Percent reduction in PPAR-y in bronchoalveolar lavage fluid with respect to the Model group,[1]; BSM: BS 90 mg/kg gavage daily,-6.09%
same,IL-1β in bronchoalveolar lavage fluid,[1]; BSM: BS 90 mg/kg gavage daily,6.50 ± 1.38 pg/mL
same,IL-2 in bronchoalveolar lavage fluid,[1]; BSM: BS 90 mg/kg gavage daily,40.84 ± 3.88 pg/mL
same,IL-6 in bronchoalveolar lavage fluid,[1]; BSM: BS 90 mg/kg gavage daily,13.13 ± 1.03 pg/mL
same,TNF-α in bronchoalveolar lavage fluid,[1]; BSM: BS 90 mg/kg gavage daily,49.57 ± 5.97 pg/mL
same,Toxic or side effects (in words),[2],no toxic and side effects; also recorded: no significant toxic or side effects
same,BEect,[3]; BS 90 mg/kg gavage daily,-9.40 ± 1.14 mmol/L
same,HCO3^-,[3]; BS 90 mg/kg gavage daily,30.00 ± 1.20 mmol/L
same,PCO2,[3]; BS 90 mg/kg gavage daily,30.84±1.21 mmHg
same,Effect on blood gas analysis (in words),"[3]; BS 90 mg/kg, better than Dex (1-1.5 mg/kg) in general",significant improvements to the function of pulmonary ventilation and the acid-base balance states
same,Effect on lung coefficient (in words),"[4]; BS 90 mg/kg or 180 mg/kg, effect better than that of Dex",significantly reduce increases in the lung coefficient
same,Effect on spleen coefficient (in words),"[4]; BS 180 mg/kg, effect better than that of Dex",significantly decrease the spleen coefficient
same,Lung coefficient,[4]; BSH: BS 180 mg/kg gavage daily,0.88±0.05%
same,Spleen coefficient,[4]; BSH: BS 180 mg/kg gavage daily,0.39±0.02%
same,Lung coefficient,[4]; BSL: BS 36 mg/kg gavage daily,0.97±0.07%
same,Spleen coefficient,[4]; BSL: BS 36 mg/kg gavage daily,0.40±0.07%
same,Lung coefficient,[4]; BSM: BS 90 mg/kg gavage daily,0.90±0.09%
same,Spleen coefficient,[4]; BSM: BS 90 mg/kg gavage daily,0.40±0.05%
"C[C@@H]1C[C@H]2[C@@H]3CCC4=CC(=O)C=C[C@]4(C)[C@@]3(F)[C@@H](O)C[C@]2(C)[C@@]1(O)C(=O)CO [Dex, dexamethasone, reference compound]",IFN-γ in bronchoalveolar lavage fluid,[1]; [5],66.48 ± 4.88 pg/mL
same,NF-κB in bronchoalveolar lavage fluid,[1]; [5],818.72 ± 119.21 pg/mL
same,PPAR-γ in bronchoalveolar lavage fluid,[1]; [5],232.49 ± 39.00 pg/mL
same,Percent reduction in IL-1β in bronchoalveolar lavage fluid with respect to the Model group,[1]; [5],23.21%
same,Percent reduction in IL-2 in bronchoalveolar lavage fluid with respect to the Model group,[1]; [5],7.98%
same,Percent reduction in IL-6 in bronchoalveolar lavage fluid with respect to the Model group,[1]; [5],55.36%
same,Percent reduction in NF-κB in bronchoalveolar lavage fluid with respect to the Model group,[1]; [5],10.75%
same,Percent reduction in TGF-β in bronchoalveolar lavage fluid with respect to the Model group,[1]; [5],15.87%
same,Percent reduction in TNF-α in bronchoalveolar lavage fluid with respect to the Model group,[1]; [5],5.19%
same,TGF-β in bronchoalveolar lavage fluid,[1]; [5],159.28 ± 11.09 pg/mL
same,Percent reduction in IFN-γ in bronchoalveolar lavage fluid with respect to the Model group,[1]; [5],-100.30%
same,Percent reduction in PPAR-y in bronchoalveolar lavage fluid with respect to the Model group,[1]; [5],-7.09%
same,IL-1β in bronchoalveolar lavage fluid,[1]; [5],9.59 ± 0.90 pg/mL
same,IL-2 in bronchoalveolar lavage fluid,[1]; [5],41.67 ± 4.69 pg/mL
same,IL-6 in bronchoalveolar lavage fluid,[1]; [5],12.84 ± 1.02 pg/mL
same,TNF-α in bronchoalveolar lavage fluid,[1]; [5],53.21 ± 0.90 pg/mL
same,BEect,[3]; [5],-9.20 ± 1.30 mmol/L
same,HCO3^-,[3]; [5],28.28 ± 1.56 mmol/L
same,PCO2,[3]; [5],32.52±2.73 mmHg
same,Lung coefficient,[4]; [5],0.96±0.08%
same,Spleen coefficient,[4]; [5],0.43±0.04%
